Laboratory results taken from ChEMBL document CHEMBL6092216, “Development of α-Helical Antimicrobial Peptides with Imperfect Amphipathicity for Superior Activity and Selectivity” (J Med Chem, 2024).
The source made the active and inactive calls. No cut-off for these calls is given here. Where a SMILES comes first, the peptide text is derived from it. [ ]: non-standard residue; d: D form. Hmpa(2S,3S) = CC[C@H](C)[C@H](O)C(=O)O

Columns and labels:
Erythrocyte = assay: Induction of hemolysis in mouse red blood cells at 1.56 to 100 ug/ml incubated for 1 hr; type: toxicity, cell-based; conditions: dose 1.56-100 µg/ml
Acinetobacter baumannii = assay: Antibacterial activity against Acinetobacter baumannii ATCC 19606 assessed as inhibition of bacterial growth by tube microdilution assay; type: functional
HaCaT = assay: Cytotoxicity against human HaCaT cells assessed as effect on cell viability at 3.13 to 400 ug/ml incubated for 24 hrs by CCK-8 assay; type: toxicity, cell-based; conditions: dose 3.13-400 µg/ml
Staphylococcus aureus [1] = assay: Antibacterial activity against Staphylococcus aureus ATCC 6538 assessed as inhibition of bacterial growth by tube microdilution assay; type: functional
HEK-293T = assay: Cytotoxicity against HEK293T cells assessed as effect on cell viability at 3.13 to 400 ug/ml incubated for 24 hrs by CCK-8 assay; type: toxicity, cell-based; conditions: human, dose 3.13-400 µg/ml
Staphylococcus aureus [2] = assay: Ratio of MIC for bactericidal activity against Staphylococcus aureus ATCC 6538 measured after 35 passages to MIC for bactericidal activity against Staphylococcus aureus ATCC 6538 measured after short period of drug exposure; type: functional
Cell membrane = assay: Induction of membrane permeabilization in Staphylococcus aureus ATCC 6538 assessed as increase in fluorescence intensity at 5XMIC measured for 90 mins by propidium iodide staining based fluorescence analysis; type: subcellular
Staphylococcus aureus [3] = assay: Bactericidal activity against Staphylococcus aureus ATCC 6538 assessed as elimination of bacterial cells at 5X to 10X MIC by killing kinetic assay; type: functional, organism-based
Staphylococcus aureus [4] = assay: Antibacterial activity against Staphylococcus aureus ATCC 6538 infected in BALB/c mouse assessed as inhibition of bacterial colonization on wounded skin at 0.5 mg/ml applied on skin and measured after 2 hrs; type: functional, organism-based
Staphylococcus aureus [5] = assay: Induction of bacterial cell rupture in Staphylococcus aureus ATCC 6538 assessed as cell disruption at 5XMIC measured after 30 mins by transmission electron microscopy; type: functional, organism-based
Staphylococcus aureus [6] = assay: Induction of bacterial cell rupture in Staphylococcus aureus ATCC 6538 assessed as cell disruption at 5XMIC measured after 30 mins by scanning electron microscopy; type: functional, organism-based

Row | Compound | MIC (Acinetobacter baumannii) [µg/mL] | MIC (Staphylococcus aureus [1]) [µg/mL] | other results
1 | H-IKKFIKKVKKVKKAIKEG-OH | 37.5 | 75 | Activity (Erythrocyte): Non-toxic; Activity (HaCaT): Non-toxic; Activity (HEK-293T): Non-toxic
2 | CC[C@H](C)[C@H](N)C(=O)N[C@@H](CCCCN)C(=O)N[C@@H](CCCCN)C(=O)NCC(=O)O[C@H](C(=O)N[C@@H](CCCCN)C(=O)N[C@@H](CCCCN)C(=O)N[C@@H](CC(C)C)C(=O)N[C@@H](CC(C)C)C(=O)O)[C@@H](C)CC (H-IKKG[Hmpa(2S,3S)]KKLL-OH) | > 200 | > 200 | Activity (Erythrocyte): Non-toxic; Activity (HaCaT): Non-toxic; Activity (HEK-293T): Non-toxic
3 | CN[C@H](CC(C)C)C(=O)N[C@H]1C(=O)N[C@@H](CC(N)=O)C(=O)N[C@H]2C(=O)N[C@H]3C(=O)N[C@H](C(=O)N[C@H](C(=O)O)c4cc(O)cc(O)c4-c4cc3ccc4O)[C@H](O)c3ccc(c(Cl)c3)Oc3cc2cc(c3O[C@@H]2O[C@H](CO)[C@@H](O)[C@H](O)[C@H]2O[C@H]2C[C@](C)(N)[C@H](O)[C@H](C)O2)Oc2ccc(cc2Cl)[C@H]1O [VANCOMYCIN] | – | – | Ratio (Staphylococcus aureus [2]): 4; Activity (Cell membrane): inactive; Activity (Staphylococcus aureus [3]): Active; Slow Killing Rate; Activity (Staphylococcus aureus [4]): Active; Activity (Staphylococcus aureus [5]): Active; Limited Cell Disruption With Most Cells Remain Intact And Unaffected; Activity (Staphylococcus aureus [6]): Active; Limited Cell Disruption With Most Cells Remain Intact And Unaffected
4 | H-RRGIKKFIKKVKKVKKAIKEGIKKGIKKLL-OH | 9.37 | 9.37 | –
5 | H-IKKFIKKVKKVKKAIK-OH | 4.68 | 4.68 | Activity (Erythrocyte): Non-toxic; Activity (HaCaT): Non-toxic; Activity (HEK-293T): Non-toxic
6 | H-FIKKVKKVKKAIKEGIKK-OH | 37.5 | 75 | –
7 | H-GIKKFIKKVKKVKKAIKE-OH | 37.5 | 75 | –
8 | H-SGGGSNIAHGPGGRRHIA-OH | > 200 | > 200 | –
9 | H-KKFIKKVKKVKKAIKEGI-OH | 37.5 | 75 | –
10 | H-IKKVKKVKKAIKEGIKKG-OH | 75 | 75 | –
11 | H-KFIKKVKKVKKAIKEGIK-OH | 37.5 | 75 | –
12 | CC[C@H](C)[C@H](NC(=O)CN)C(=O)N[C@@H](CCCCN)C(=O)N[C@@H](CCCCN)C(=O)NCC(=O)O[C@H](C(=O)N[C@@H](CCCCN)C(=O)N[C@@H](CCCCN)C(=O)N[C@@H](CC(C)C)C(=O)N[C@@H](CC(C)C)C(=O)O)[C@@H](C)CC (H-GIKKG[Hmpa(2S,3S)]KKLL-OH) | > 200 | > 200 | –
13 | H-RGIKKFIKKVKKVKKAIK-OH | 2.34 | 2.34 | –
